This assay has as its system DT40 cells stably expressing mutated PLCγ2 (L845F). Nature of the assay: Calcium flux assay in DT40 cells after anti-IgM stimulation. Type of assay: cell-based, chicken. The conditions noted are these: L845F PLCγ2 mutant DT40 cells, 1 μM Ibrutinib 30 min. The protocol:
The intracellular calcium level was detected by Calcium Assay Kit (BD Biosciences, San Diego, Calif.) and measured by Beckman Coulter DTX880 microplate reader. After 195 seconds of acquisition to determine the baseline, 3 μg/ml anti-chicken IgM (SouthernBiotech, Birmingham, Ala.) was added to stimulate the cells.
WT PLCγ2 and L845F PLCγ2 were stably transfected into 293 cells and DT40 cells which lack endogenous PLCγ2 expression (FIG. 5). Calcium flux was examined in DT40 cells after anti-IgM stimulation in the presence of WT or mutant PLCγ2.

SMILES strings stand for the structures.

The values that follow come from patent US9885086B2, “Phospholipase C gamma 2 and resistance associated mutations” (Pharmacyclics LLC, priority 2014, dated 2018).

On to `C=CC(=O)N1CCC[C@@H](n2nc(-c3ccc(Oc4ccccc4)cc3)c3c(N)ncnc32)C1` [ibrutinib], for which the “inhibition of IgM-mediated calcium flux” value is “not inhibited”.
